In brackets after ≈: the same amount, converted by molar mass.
How the values were obtained:
[1] = Thermodynamic solubility in 50 mM phosphate buffer pH 7.4; type: physicochemical; details: aqueous buffer, thermodynamic from solid, 50 mM phosphate buffer pH 7.4, room temperature
Description: (§1) 50 mM phosphate buffer pH=7.4: 0.39 g of NaH2PO4.2H2O, and 1.4025 g of Na2HPO4 were weighted and placed in an erlenmeyer flask, 240 mL of water was added. The solid was dissolved and mixed thoroughly, the pH value was adjusted to 7.4 with 10M NaOH solution, and the resulting solution was transferred to a 250 mL volumetric flask, followed by adding water to the mark.
(§2) Waters e2695 HPLC high performance liquid chromatography, Mettler XSE105 analytical balance.
(§3) Firstly, a 10 mM stock solution with DMSO as the solvent was prepared, and was diluted with a diluent (ACN: PB buffer 50:50) into 1 μM-200 μM as standard solution.
Thermodynamic solubility. About 1 mg of the sample was weighted, 1.5 mL of 50 mM phosphate buffer (pH 7.4) was added thereto, and the mixture was shaken at room temperature for 24 hours to ensure that the solution reached a state of saturation. The solution was then filtered, and the filtrate was tested with high-performance liquid chromatography (UV).

[2] = Kinetic solubility in 50 mM phosphate buffer pH 7.4; type: physicochemical; details: aqueous buffer, kinetic from dmso stock, 50 mM phosphate buffer pH 7.4, 2% DMSO, room temperature
Description: as §1, §2, §3
Kinetic solubility. 30 μL of the stock solution was placed in a 2 mL centrifuge tube, 1470 μL of 50 mM phosphate buffer (pH 7.4) (containing DMSO at a final concentration of 2%) was added. The mixture was shaken at room temperature (1000 rpm/min) for 24 hours, and then filtered. The filtrate was tested by high performance liquid chromatography (UV).

[3] = target: T1, α5-GABAA receptor (Homo sapiens, UniProt P18507+P31644); assay: Whole cell patch clamp, inverse agonism efficacy on GABA-induced current in HEK-293 cells expressing α5-GABAA receptor; type: cell-based; details: HEK293; compound 100 nM, GABA 0.05 μM; ratio to reference compound Example 7 in CN106854207A in the same batch
T1 construct: expressed in transfected cells; host or cells: HEK-293 (monoclonal, stably transfected)
T1 sequence (P28472 26-473 partner, one chain of several): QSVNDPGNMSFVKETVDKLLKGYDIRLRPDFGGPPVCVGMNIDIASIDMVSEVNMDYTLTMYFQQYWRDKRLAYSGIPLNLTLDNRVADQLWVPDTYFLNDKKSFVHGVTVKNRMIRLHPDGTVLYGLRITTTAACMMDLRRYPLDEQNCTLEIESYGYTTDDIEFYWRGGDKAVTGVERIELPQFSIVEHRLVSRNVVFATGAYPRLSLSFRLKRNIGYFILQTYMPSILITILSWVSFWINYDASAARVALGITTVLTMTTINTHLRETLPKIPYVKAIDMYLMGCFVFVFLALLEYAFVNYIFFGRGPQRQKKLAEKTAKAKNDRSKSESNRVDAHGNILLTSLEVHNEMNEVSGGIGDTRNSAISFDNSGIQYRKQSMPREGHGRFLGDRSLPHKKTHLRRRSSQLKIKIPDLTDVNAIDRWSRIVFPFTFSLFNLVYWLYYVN
T1 sequence (P18507 40-467 isoform P18507-1 limits assumed, one chain of several): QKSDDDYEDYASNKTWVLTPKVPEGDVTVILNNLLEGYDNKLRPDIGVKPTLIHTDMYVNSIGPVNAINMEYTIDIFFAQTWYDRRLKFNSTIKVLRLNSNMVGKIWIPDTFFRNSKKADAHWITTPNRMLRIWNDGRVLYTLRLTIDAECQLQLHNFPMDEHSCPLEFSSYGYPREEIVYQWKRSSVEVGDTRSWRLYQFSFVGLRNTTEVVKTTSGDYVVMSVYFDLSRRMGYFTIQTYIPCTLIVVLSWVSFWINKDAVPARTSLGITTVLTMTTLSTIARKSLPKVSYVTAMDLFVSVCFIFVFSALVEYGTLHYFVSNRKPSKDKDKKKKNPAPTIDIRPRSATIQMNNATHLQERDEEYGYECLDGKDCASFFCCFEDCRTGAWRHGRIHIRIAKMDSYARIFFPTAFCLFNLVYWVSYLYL
Description: The inventors used electrophysiological methods to determine the inverse agonist efficacy of the substances to be tested. The detailed procedures are as follows:
(1) Different subunits of GABAA receptors were expressed in human embryonic kidney cells 293 (HEK293). The cells were cultured in a culture medium and used as a cell model for screening potential analgesics. The α, β and γ subunits are necessary to form complete functional GABAA receptors. In this example, the inventors have established the following cell model: (a) α5 subunit (protein sequence is GenBank accession number: NM_000810.3), (33 subunit (protein sequence is GenBank accession number: NM_000814.5) and γ2 subunit (protein sequence is GenBank accession number: NM_000816.3) were expressed in HEK-293 cell line at the same time, followed by screening the monoclonal cell line. This cell line contained α5-GABAA receptor and had complete GABAA receptor function.
(2) The monoclonal stably transfected HEK-293 cells expressing α5-GABAA receptor were cultured in 10 cm culture dishes. The cells were passaged after reaching 80-90% confluence. During passaging, the culture medium was removed and discarded, 3 mL of DPBS (phosphate buffered saline, Gibco™) was added to the dishes, the dishes were shaken slightly, and DPBS was removed and discarded. 1 mL of trypsin (TrypLE Express, Gibco™) was added and the cells were digested at 37° C. for 1-2 minutes. Then 3 mL of complete medium (DMEM+10% FBS (Gibco™)) was added and the cells at the bottom of the culture dishes were dispersed. The cell suspension were transferred to a 15 mL centrifugal tube (Corning™) and then centrifuged at 200 g for 3 minutes. The supernatant was discarded, 4 mL of complete medium was added, and the cells were resuspended by gently blowing. The cell suspension was diluted by 1:5 or 1:10 for subculturing. The cell suspension was diluted by 1:12 for electrophysiology experiment, and added to a 24 well plate (Corning™) with a glass slide pre-treated with poly-D-lysine placed thereon; the experiment was initiated after the cells were adhered to the slide. The cells for electrophysiology experiment were maintained in culture for no more than 48 hours before use.
(3) Compound concentration: for screening, all compounds were diluted to a final concentration of 100 nM and the concentration of GABA was 0.05 μM. The compounds were at the concentration of 0.3 nM, 3 nM, 10 nM, 30 nM, 100 nM and 300 nM in dose-inverse agonism efficacy (%) experiment. The whole cell patch clamp technique was used in electrophysiology experiments, which can refer to the literature (I. Lecker, Y. Yin, D. S. Wang and B. A. Orser, (2013) Potentiation of GABAA receptor activity by volatile anaesthetics is reduced by α5-GABAA receptor-preferring inverse agonists, British Journal of Anaesthesia 110 (S1): i73-i81). The extracellular solution (ECS) contained: 150 mM NaCl, 5 mM KCl, 2.5 mM CaCl2, 1 mM MgCl2, 10 mM HEPES and 10 mM glucose (pH 7.4); Patch electrodes were filled with an intracellular solution containing: 140 mM CsCl, 11 mM EGTA, 10 mM HEPES, 2 mM CaCl2, 1 mM MgCl2, 4 mM MgATP, 2 mM TEA (pH 7.3). The currents were recorded by an EPC-10 amplifier and the PatchMaster software (HEKA). Patch electrodes with a resistance of 4-6 MΩ were pulled from borosilicate glass. The ALA-VC3-8PP™ system was used for extracellular administration. Separate cells that grew independently was selected for recording. During recording, the membrane voltage was clamped at −60 mV. During experiment, the cells were firstly perfused with ECS for 20 seconds. When the baseline reached to a stable state, the cells were then perfused with GABA solution. Then the current induced by GABA could be detected. After about 20 to 40 seconds, the current was stable. ECS was switched to compounds solution and the effects of the compounds were detected. At last, the perfusion solution was switched to ECS. […]

[4] = target: T2, α5-GABAA (Homo sapiens, UniProt P31644); details: cited from earlier work
T2 sequence (P31644 32-462): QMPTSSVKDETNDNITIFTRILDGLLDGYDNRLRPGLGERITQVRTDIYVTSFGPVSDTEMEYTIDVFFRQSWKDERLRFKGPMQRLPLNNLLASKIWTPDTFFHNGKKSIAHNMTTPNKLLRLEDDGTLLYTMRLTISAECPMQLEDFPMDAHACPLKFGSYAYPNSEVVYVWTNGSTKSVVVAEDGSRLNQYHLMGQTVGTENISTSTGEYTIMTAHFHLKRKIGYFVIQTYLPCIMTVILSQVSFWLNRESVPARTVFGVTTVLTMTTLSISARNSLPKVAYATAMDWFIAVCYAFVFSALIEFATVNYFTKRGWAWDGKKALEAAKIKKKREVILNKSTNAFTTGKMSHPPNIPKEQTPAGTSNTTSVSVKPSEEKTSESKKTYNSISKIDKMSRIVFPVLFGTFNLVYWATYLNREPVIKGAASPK

[5] = test system: α5-GABAA receptor; details: cited from earlier work
[6] = Pharmacokinetic experiment on rats, oral; type: in vivo; details: rat; male SD rats, po 1 mg/kg, 50% PEG400/50% water, plasma
Description: In the pharmacokinetic experiment on rats, the maximum drug concentration (Cmax) in the blood was determined to evaluate the absorption of the compounds in rats. All rats fasted overnight before administration; the test compounds were dissolved and administered orally (po, intragastric administration) to male SD rats, with 3 rats in each group. After administration of the test compounds, blood was collected by jugular vein puncture at […] with 0.25 mL per sample. The plasma drug concentration was determined by LC-MS/MS method, and the pharmacokinetic parameters were calculated by Phoenix WinNonlin7.0. The dose was 1 mg/kg, and the menstruum was 50% PEG400/50% water.

SMILES	solubility thermodynamic at 24 h [1] [µg/mL]	solubility kinetic at 24 h [2] [µg/mL]	Emax at 0.1 µM [3] [%]	further results
CCNC(=O)c1ccc(COc2nn3c(-c4cc(COC)on4)nnc3c3ccccc23)nc1 [Compound 02, N-ethyl-6-[3-(5-methoxymethyl-isoxazol-3-yl)-[1,2,4]triazolo[3,4-a]phthalazin-6-yloxymethyl]-nicotinamide]	3.39 (≈ 7.38 µM)	8.02 (≈ 17.5 µM)	78	
COCc1cc(-c2nnc3c4ccccc4c(OCc4ccc(C(=O)NC(C)C)cn4)nn23)no1 [Compound 11, N-isopropyl-6-[3-(5-methoxymethyl-isoxazol-3-yl)-[1,2,4]triazolo[3,4-a]phthalazin-6-yloxymethyl]-nicotinamide]	4.4 (≈ 9.29 µM)	9.23 (≈ 19.5 µM)	106	
COCc1cc(-c2nnc3c4ccccc4c(OCc4ccc(C(=O)NC5CC5)cn4)nn23)no1 [Compound 12, N-cyclopropyl-6-[3-(5-methoxymethyl-isoxazol-3-yl)-[1,2,4]triazolo[3,4-a]phthalazin-6-yloxymethyl]-nicotinamide]	9.05 (≈ 19.2 µM)	10.9 (≈ 23.1 µM)	94	
COCc1cc(-c2nnc3c4ccccc4c(OCc4ccc(C(=O)N(C)C)cn4)nn23)no1 [Compound 37]	84.7 (≈ 184 µM)	91.9 (≈ 200 µM)	72.1	
COCc1cc(-c2nnc3c4ccccc4c(OCc4ccc(C(=O)N5CCOCC5)cn4)nn23)no1 [Compound 38, {6-[3-(5-methoxymethyl-isoxazol-3-yl)-[1,2,4]triazolo[3,4-a]phthalazin-6-yloxymethyl]-pyridin-3-yl}-morpholin-4-methanone]	8.7 (≈ 17.3 µM)	17.8 (≈ 35.4 µM)	93.4	
COCc1cc(-c2nnc3c4ccccc4c(OCc4ccc(C(=O)N5CC(OC)C5)cn4)nn23)no1 [Compound 42]	6.02 (≈ 12 µM)	5.89 (≈ 11.7 µM)	73.3	
CCOC(=O)c1ncn2c1[C@@H]1CCCN1C(=O)c1cc(OC)ccc1-2 [L-655,708]				inhibition efficacy of the highest dose on the current induced by GABA ([4]; GABA concentration 1 μM): 15%; inhibition on the current induced by GABA ([4]; GABA concentration higher than 1 μM): no inhibition
Cc1cc(-c2nncc3c(C(C)(C)C)c(OCc4ncnn4C)nn23)no1 [MRK016, 3-tert-butyl-7-(5-methylisoxazol-3-yl)-2-(1-methyl-1H-1,2,4-triazol-5-ylmethoxy)pyrazolo[1,5-d][1,2,4]triazine]				block of the binding of (^3H)R0-15-1788 in brain [5]: efficiently block
CCNC(=O)c1ccc(COc2nn3c(-c4cc(COC)on4)nnc3c3ccccc23)nc1 [drawing 172]				Cmax [6]: 24.7 ng/mL
CCNC(=O)c1ccc(COc2nn3c(-c4cc(C)on4)nnc3c3ccccc23)nc1 [drawing 173, reference compound]				Cmax [6]: 19 ng/mL
COCc1cc(-c2nnc3c4ccccc4c(OCc4ccc(C(=O)N5CCOCC5)cn4)nn23)no1 [drawing 174]				Cmax [6]: 48 ng/mL
Cc1cc(-c2nnc3c4ccccc4c(OCc4ccc(C(=O)N5CCOCC5)cn4)nn23)no1 [drawing 175, reference compound]				Cmax [6]: 22.4 ng/mL
Cc1cc(-c2nnc3c4ccccc4c(OCc4ccc(C(=O)NC(C)C)cn4)nn23)no1 [reference compound]	1.8 (≈ 4.06 µM)	2.2 (≈ 4.96 µM)		
Cc1cc(-c2nnc3c4ccccc4c(OCc4ccc(C(=O)NC5CC5)cn4)nn23)no1 [reference compound]	0.82 (≈ 1.86 µM)	2.16 (≈ 4.89 µM)		
Cc1cc(-c2nnc3c4ccccc4c(OCc4ccc(C(=O)NCC(F)F)cn4)nn23)no1 [reference compound]	< 0.46	< 0.46		
Cc1cc(-c2nnc3c4ccccc4c(OCc4ccc(C(=O)N5CCC(F)(F)CC5)cn4)nn23)no1 [reference compound]	0.98 (≈ 1.94 µM)	0.97 (≈ 1.92 µM)		

Source: US11512089B2, “Substituted [1,2,4]triazolo[3,4-a]phthalazines as modulators of GABAA receptor activity” (SHANGHAI SIMR BIOTECHNOLOGY CO., LTD, priority 2018, dated 2022)
